The assay deals with T1, TLR8 (Homo sapiens, UniProt Q9NR97).
T1 sequence (Q9NR97 27-1041): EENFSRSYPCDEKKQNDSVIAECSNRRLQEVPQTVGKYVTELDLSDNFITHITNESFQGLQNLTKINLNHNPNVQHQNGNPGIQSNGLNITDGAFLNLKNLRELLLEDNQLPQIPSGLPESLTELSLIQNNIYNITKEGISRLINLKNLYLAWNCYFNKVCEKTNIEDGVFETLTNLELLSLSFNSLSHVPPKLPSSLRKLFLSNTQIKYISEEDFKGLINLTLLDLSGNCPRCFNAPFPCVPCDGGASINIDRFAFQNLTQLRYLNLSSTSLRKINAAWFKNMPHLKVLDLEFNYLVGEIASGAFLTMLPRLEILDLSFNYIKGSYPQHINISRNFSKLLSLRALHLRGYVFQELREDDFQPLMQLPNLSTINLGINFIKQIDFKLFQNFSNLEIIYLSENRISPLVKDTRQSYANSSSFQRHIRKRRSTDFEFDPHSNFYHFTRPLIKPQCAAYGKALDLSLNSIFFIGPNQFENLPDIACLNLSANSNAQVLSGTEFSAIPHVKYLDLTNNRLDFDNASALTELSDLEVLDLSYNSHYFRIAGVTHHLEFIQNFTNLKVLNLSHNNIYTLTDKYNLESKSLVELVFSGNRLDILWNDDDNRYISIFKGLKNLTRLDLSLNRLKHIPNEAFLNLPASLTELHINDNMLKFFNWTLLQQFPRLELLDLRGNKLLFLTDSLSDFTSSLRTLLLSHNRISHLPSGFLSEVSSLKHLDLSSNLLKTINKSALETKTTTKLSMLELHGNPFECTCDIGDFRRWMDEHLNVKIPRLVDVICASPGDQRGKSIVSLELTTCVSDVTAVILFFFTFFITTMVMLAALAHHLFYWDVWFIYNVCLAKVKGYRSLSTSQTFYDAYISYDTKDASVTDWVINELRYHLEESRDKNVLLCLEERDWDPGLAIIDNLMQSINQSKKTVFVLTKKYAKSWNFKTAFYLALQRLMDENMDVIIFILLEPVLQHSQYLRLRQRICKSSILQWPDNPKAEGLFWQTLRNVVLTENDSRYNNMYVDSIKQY
Briefly: THP-1 TLR8 Antagonist TNFalpha TR-FRET Assay. In kind it is cell-based. To be noted: THP-1 cells with R848 agonist, 18-20 hrs; TNFalpha TR-FRET read-out. Details: endogenous in cells. As to the method:
Cell-based assay: • 1) THP-1cells were cultured in RPMI 1640 with 10% FBS, 10 mM HEPES, 1 mM Sodium Pyruvate, 1% Penicillin-Streptomycin L-glutamine, and 1% Non-Essential Amino Acids; • 2) 3 sets of different passages of THP-1cells in assay media were pooled, counted, and resuspended in the same media as culture media, but with 5% FBS; • 3) Cells were diluted to 100,000 cells/well (30 μl/well) and the R848 agonist was diluted to 25 μM in 10 μl/well in media; • 4) The cell and agonist dilutions were combined and 40 μl/well were added to 384-well flat bottom Greiner assay plates containing test compounds in DMSO, which were Echo pre-spotted at 50 nL per well with a 8 mM top dose and 10 point 1:3 serial dilutions—10 μM final top dose; • 5) The plates were incubated overnight for 18-20 hrs at 37 degrees with 5% CO2; • 6) The plates were then centrifuged at 1000 rpm for 2 min at rt; • 7) 10 μl/well of supernatants were transferred to 384-well low volume white Greiner proxiplates; and • 8) TNFα levels were measured using the TR-FRET assay described below.
• 1) Cisbio Human TNFalpha kit, 20,000 tests (62TNFPEC), and Greiner Bio-One LIA-white TC 384 well small volume plates (cat #784080) were used; • 2) the Anti-TNFalpha Cryptate conjugate and the Anti-TNFalpha XL665 conjugate were diluted 1:20 in Reconstitution Buffer; • 3) a 1:1 mixture of 5 μl/well Anti-TNFalpha Cryptate conjugate and 5 μl/well Anti-TNFalpha XL665 conjugate was prepared; • 4) 10 μl/well HTRF dilution mastermix were added to 10 μl of transferred supernatant samples in proxiplates; • 5) The plates were incubated for 3 hrs at rt in the dark; and • 6) the levels of TNFalpha production was measured using an Envision plate reader (665 nm (emmission)/590 nm (excitation)).
(Time-resolved FRET reads energy transfer from a long-lived donor to a nearby acceptor.)

By IC50 is commonly meant the concentration needed to halve the response being measured. As to `Cn1ncc2c(N3CCc4c(cnn4CC45CCC(N)(CC4)CC5)C3)nc(N)nc21` [compound 11, 4-(1-((4-aminobicyclo[2.2.2]octan-1-yl)methyl)-6,7-dihydro-1H-pyrazolo[4,3-c]pyridin-5(4H)-yl)-1-methyl-1H-pyrazolo[3,4-d]pyrimidin-6-amine], the half-maximal inhibitory concentration (IC50) was found to be 8.23 µM.
As to `Cn1ncc2c(N3CCc4nn(CC56CCC(N)(CC5)CC6)cc4C3)nc(N)nc21` [compound 12, 4-(2-((4-aminobicyclo[2.2.2]octan-1-yl)methyl)-6,7-dihydro-2H-pyrazolo[4,3-c]pyridin-5(4H)-yl)-1-methyl-1H-pyrazolo[3,4-d]pyrimidin-6-amine], the IC50 is over 10 µM.
`Cc1c2c(nn1CC13CCC(N)(CC1)CC3)CCN(c1nc(N)nc3c1cnn3C)C2` [compound 14, 4-(2-((4-aminobicyclo[2.2.2]octan-1-yl)methyl)-3-methyl-6,7-dihydro-2H-pyrazolo[4,3-c]pyridin-5(4H)-yl)-1-methyl-1H-pyrazolo[3,4-d]pyrimidin-6-amine]: the IC50 is over 10 µM.

The values are drawn from US20240376099A1, “COMPOUNDS AND COMPOSITIONS AS INHIBITORS OF ENDOSOMAL TOLL-LIKE RECEPTORS” (Novartis AG, priority 2016, published 2024).
